Experimental data from US20260234188A1, “CHEMOKINE-BINDING PEPTIDES” (Oxford University Innovation Limited, priority 2022, published 2026).
“Also recorded” adds a separate entry of the source.

Each substance was assayed on panel of up to 42 human chemokines (assay: Phage-display next generation sequencing screen of overlapping hexadecapeptide libraries, chemokines displayed on streptavidin beads). Conditions: log2E greater than 5, chemokines named by first part of UniProt Entry Name.
Format: binding
Excerpt: FIG. 1. Exemplar results from phage display screens. Phage-display libraries were constructed and analysed as described in (McLaughlin, 2013) (Tonikian, 2007). […] FIG. 1A, CC chemokines against evasin A library. FIG. 1B, CXC chemokines against the evasin B library. FIG. 1C, CXC and CX3C chemokines against the viral chemokine binding protein library. FIG. 1D, CXC chemokines against the chemokine library. […] Identified hexadecapeptides were mapped to the position in the originating protein (x-axis) and to fold enrichment (log 2 E, left y-axis). Regions of interest (ROI) were defined where the cumulative residue log 2 E, (clog 2 E:r, right y-axis) exceeds the 95% upper confidence interval of the median clog 2 E:r for the entire protein (indicated as a horizontal dotted line in each panel). Proteins are referred to by their UniProt ID.
Hexadecapeptides were identified using a phage-display next generation sequencing approach (McLaughlin, 2013). Libraries containing a total of 55662 overlapping peptides (from the tick chemokine binding proteins shown in Tables 3A and 3B, the viral chemokine binding proteins shown in Table 3C, the human chemokines shown in Table 3 E, and the human/viral chemokine receptors and other chemokine-binding proteins shown in Table 3D) were first constructed, and then screened against a panel of up to 42 human chemokines, as shown in Table 3F.

Row | Substance | Chemokines Bound
1 | CR4754 (FARAIDIIYSLITSAN) | CCL18, CCL28,; also recorded: X3CL1
2 | CR4463 (ESLFAALVTLITSLFG) | CCL1, CCL17,; also recorded: CCL18, CCL2,; also recorded: X3CL1, CXL10,; also recorded: CXL11, IL8
3 | CR26667 (WNNFHTIMRNILGLVL) | CCL17, CCL18,; also recorded: CXL14
4 | CR2291 (AWFLPIMYSIISFVGL) | CCL1, CCL11, and IL8
5 | CR24593 (VFLLSLLGNSLVMLVI) | CCL22, CCL25, and CXL10, CXL11, and SDF1, CXL13, and IL8
6 | CR26633 (WLMSIVGTFLNMLVIT) | CCL11, CCL17,; also recorded: CCL18, CCL19,; also recorded: CCL20, CCL22,; also recorded: CCL25, CCL28,; also recorded: X3CL1, CXL10
7 | CR3146 (DFLSKLLNMIFSISLY) | CCL17, CCL18,; also recorded: CCL19, CCL2,; also recorded: CCL20, CXL14
8 | CR5511 (FLGILGNGLVIIIATF) | CCL20, CCL22, and SDF1
9 | CR24556 (VFGTVFLSIFYSVIFA) | CCL1, CCL17,; also recorded: CCL18, CCL19,; also recorded: CCL2, CCL20,; also recorded: CCL22, CCL25,; also recorded: CCL28, X3CL1,; also recorded: CXL10, CXL11,; also recorded: SDF1, CXL13,; also recorded: CXL14, IL8
10 | CR26093 (VVCILVWLLAFCVSLP) | CCL20, X3CL1,; also recorded: CXL10, IL8
11 | CR24063 (TWNLVLSQFFSILATM) | CCL1, CCL22,; also recorded: CXL11, CXL14
12 | CR3107 (DFAAILLYIDDFSAYF) | CCL18, X3CL1,; also recorded: CXL13
13 | CR5171 (FGVVTSVITWLVAVFA) | CCL11, CCL17, and CCL18, CCL2, and CCL20, CCL22, and CCL25, CCL28, and X3CL1, CXL10, and CXL11, SDF1, and CXL13, CXL14, and IL8
14 | CR23111 (TLFASDFVLMWAVFFM) | CCL15, CCL17,; also recorded: CCL20, CCL25,; also recorded: CXL14
15 | CR27428 (YLKAFLAAVLGWHLAP) | CCL17, CCL18,; also recorded: CCL2, CCL20,; also recorded: X3CL1, CXL10,; also recorded: CXL11, SDF1,; also recorded: CXL14
16 | CR25151 (VLGDFLCKLLNMIFSI) | CCL18, CCL2, and CCL28, X3CL1, and CXL10, CXL14, and IL8
17 | CR5518 (FLGLMASVWTHLGMAL) | CCL2, CXL10,; also recorded: CXL11
18 | CR23945 (TVITFSLYVGQFLAYV) | CCL1, CCL15,; also recorded: CCL20, CCL22,; also recorded: CCL28, CXL10,; also recorded: CXL11, SDF1,; also recorded: CXL13
19 | CR27514 (YLYVYLDIFSVVSVSL) | CCL1, CCL19, and SDF1
20 | CR4845 (FDFMILNLSFCDLFIC) | X3CL1, CXL13, and IL8
21 | CR3135 (DFLCKLLNMIFSISLY) | CCL17, CCL22,; also recorded: CCL25, CCL28,; also recorded: CXL11, IL8
22 | CR362 (AEIYEYLFFFSFFFLA) | CCL22, CXL11,; also recorded: CXL13

Same assay, conditions: log2E greater than 5, chemokines named by first part of UniProt Entry Name, peptides binding complement C5a (control) excluded

Row | Substance | Chemokines Bound
23 | CR8427 (HTLRMTIFCLVLPLLV) | CCL28, CXL10, and CXL11, SDF1, and IL8
24 | EB3975 (VGLCLSTEYTDFTKFP) | CXL10, CXL11,; also recorded: SDF1, CXL14
25 | VP4048 (IILLVYVYATFATKGI) | CCL1, CCL5,; also recorded: CCL8, X3CL1,; also recorded: CXL10, CXL11,; also recorded: CXL13, IL8
26 | CR5669 (FLSIFYSVIFAIGLVG) | CCL17, CCL18,; also recorded: CCL19, CCL20,; also recorded: CCL28, X3CL1,; also recorded: CXL10, CXL14
27 | CR6836 (GFFIPLMFMIFSYTFI) | CCL22, CXL14, and IL8
28 | CR8496 (HWGWVLGDFLCKLLNM) | CCL11, CCL17, and CCL18, CCL19, and CCL20, CCL22, and CCL25, CCL28, and X3CL1, CXL10, and CXL11, SDF1, and CXL13, CXL14, and IL8
29 | CR7818 (GVWLMAIVGTFLNMLV) | CCL1, CCL18,; also recorded: CXL11, SDF1,; also recorded: CXL14
30 | CR8126 (HIGYFGGIFFIILLTI) | CCL18, CCL22, and CCL25, CXL11, and IL8
31 | VP7819 (RLEELYLTVASMFERL) | CCL1, CCL11,; also recorded: CCL17, CCL19,; also recorded: CCL2, CCL22,; also recorded: CCL28, CXL10
32 | CR6624 (FYYLYVYLDIFSVVAV) | CCL15, CCL17, and CCL18, CCL19, and CCL20, CCL22, and CCL25, CCL28, and X3CL1, CXL10, and CXL11, SDF1, and CXL13, CXL14, and IL8
33 | CR8437 (HTVLLSWKVLLTMVWG) | CCL1, CCL18,; also recorded: CCL19, CCL20,; also recorded: CXL13
34 | CR9192 (IISLVVWGLSVIISSS) | CCL18, CXL10, and CXL13, CXL14, and IL8
35 | CR6324 (FTWNLVLSQFFSILAT) | CCL11, CCL28,; also recorded: X3CL1, CXL11,; also recorded: CXL13
36 | CR9889 (ISLLAEVLMFLFPNII) | CCL17, CCL18,; also recorded: CCL20, CCL25,; also recorded: CCL28, CXL13
37 | CR6098 (FSIIAVFYFLLARAIS) | CCL17, CCL20,; also recorded: CCL22, CXL10,; also recorded: CXL11, CXL13,; also recorded: CXL14, IL8
38 | CR9284 (ILAFFASWLPYYIGIS) | CCL17, CCL18,; also recorded: CCL25
39 | CR9291 (ILALVGNTLALWLFIR) | CCL2, CCL22,; also recorded: CCL25, IL8

Row | Substance | Chemokines Bound
40 | LEEEDDYTAYAPLTCY [HD2134] | CCL1, CCL11, and CCL15, CCL17, and CCL18, CCL22, and CCL4, CCL5, and CCL8
41 | CR7823 (GVWLMSIVGTFLNVLV) | CCL11, CCL17, and CCL18, CCL2, and CCL8, CXL10, and CXL11, CXL14, and IL8
42 | TDGTACYVVERKVWDR [HD3838] | CCL19, CCL2,; also recorded: CCL20, CCL28
43 | EB2053 (KSDVYELFTVEYCGTN) | CXL10, CXL11,; also recorded: CXL13
44 | CR5598 (FLLSLGIILFSYVEIL) | CCL18, CCL19, and CXL10, CXL11, and SDF1, CXL14, and IL8
45 | CR9948 (ISVAWHWVFGSFLSKM) | CCL17, CCL18, and CCL20, CCL22, and CCL25, X3CL1, and CXL11, CXL14, and IL8
46 | EDDYTAYAPLTCYFTN [HD842] | CCL1, CCL17, and CCL4, CCL5, and CCL8
47 | CR7854 (GWVFIFSSIQLATVVF) | CCL1, CCL15, and CCL17, CCL19, and CCL20, CCL22, and CCL28, X3CL1, and CXL10, CXL11, and SDF1, CXL13, and IL8
48 | CR7642 (GSMLLSVLFTLYVSTL) | CCL25, CXL10,; also recorded: CXL11, CXL13
49 | CR6068 (FSFFYVIFSKALHDVT) | CCL1, CCL18, and CCL22, CCL28, and SDF1
50 | CR7477 (GPGPWMNILWAWFIFW) | CCL17, CCL18, and CCL19, CCL20, and CCL25, CXL13, and IL8
51 | CR7024 (GIITSVLAWVTAILAT) | CCL2, CCL22,; also recorded: CCL28, CXL10,; also recorded: CXL11, SDF1,; also recorded: CXL13, IL8
52 | CR6558 (FYISLFAGVSFLINLS) | CCL17, CCL18,; also recorded: CCL19, CCL20,; also recorded: CCL22, CCL25,; also recorded: CCL28, X3CL1,; also recorded: CXL10, CXL11,; also recorded: SDF1, CXL13,; also recorded: CXL14, IL8
53 | CR8784 (IFAIVVAYFLSWGPYN) | CCL1, CCL15, and CCL17, CCL18, and CCL2, CCL20, and CCL22, CCL25, and CCL28, X3CL1, and CXL10, CXL11, and SDF1, CXL14, and IL8
54 | EB1522 (GNSTEGRCIELIGDFD) | CXL11, SDF1,; also recorded: CXL14
55 | CR6097 (FSIFWWIFAVIIAIPH) | CXL10, SDF1,; also recorded: IL8, CCL1,; also recorded: CCL15, CCL22,; also recorded: CCL5, X3CL1,; also recorded: CXL11, CXL13

Same assay, conditions: log2E greater than 5, chemokines named by first part of UniProt entry name, C5a (control) binders excluded

Row | Substance | Chemokines Bound
56 | CR13108 (LLFFVFSFPYHVLNLL) | CCL17, CCL18,; also recorded: CXL10, CXL11,; also recorded: CXL14, IL8
57 | CR15917 (MVFSFFYVIFSKALHD) | CCL19, X3CL1,; also recorded: SDF1, CXL13
58 | CK2307 (IVRNFHYLLIKDGSRV) | CCL19, CCL20,; also recorded: CCL22
59 | CR20939 (SLCLSISLLAEVLMFL) | CCL1, CCL18,; also recorded: CCL19, X3CL1
60 | CR13391 (LLQALYSAVVPLIYSC) | CCL1, CCL18,; also recorded: CXL14
61 | CR21168 (SLVFIFGFVGNMLVIL) | CCL1, CCL22,; also recorded: CCL28, CXL10,; also recorded: CXL13, CXL14
62 | CR19826 (RVTLTSLAVWGLSLLF) | CCL17, CCL2,; also recorded: X3CL1, CXL14
63 | CR1475 (ANVTFTGLIAAFSWFM) | CCL2, CCL22,; also recorded: CXL11, CXL13
64 | CR22271 (SWIISFSVWMAAILLS) | CCL1, CCL17,; also recorded: CXL10
65 | CR1004 (ALAFIYVLMFLCNAIG) | CCL17, CCL18,; also recorded: CCL19, CCL20,; also recorded: CXL10, CXL14
66 | CR16988 (NVTFTGLIAAFSWFML) | CCL17, CCL18,; also recorded: CCL20, CCL22,; also recorded: CCL25, CCL28,; also recorded: CXL10, SDF1,; also recorded: CXL14
67 | CR12869 (LIWVISLLVSLPQIIY) | CCL17, CCL18, and X3CL1, CXL14, and IL8
68 | CR14365 (LSLSISLLAEVLMFLF) | CCL11, CCL19,; also recorded: CCL28, SDF1,; also recorded: CXL13, IL8
69 | CR22658 (TENFEYDDLAEACYIG) | CCL17, CCL18,; also recorded: X3CL1
70 | CR1003 (ALAFIYVLMFLANAIG) | CCL17, CCL18, and CCL19, CCL20, and CCL28, X3CL1, and CXL10, SDF1, and IL8
71 | CR14752 (LVFIFGFVGNMLVVLI) | CCL17, CCL25,; also recorded: CXL10
72 | CK3274 (LRCVCLQTTQGVHPKM) | X3CL1, CXL10,; also recorded: CXL11
73 | CR20273 (SESALAFIYVLMFLCN) | CCL18, CCL19,; also recorded: CCL20, CXL14
74 | CR13634 (LMLVFSFVSMLASLAH) | CCL19, CCL28,; also recorded: CXL13, CXL14
75 | CR12240 (LFMFVLSVLGNLTVVS) | CCL17, CCL18,; also recorded: CCL19, CCL25,; also recorded: CCL28, CXL10,; also recorded: CXL11, SDF1
76 | CR22218 (SVSLVNLLTIIGCLWV) | CCL19, X3CL1,; also recorded: CXL13
